PubChem BioAssay AID1963967 (Molecular Pharmacology Branch, DTP, NCI, 2024)

Test system: 855422-203-R-J1-PDC spheroids with HUVEC/MSC, viability
Experiment: Anticancer human tumor 855422-203-R-J1-PDC patient-derived bladder carcinoma cell line growth inhibition [PI3K]
Conditions: for IC50: curve of first compound; for viability, T/C: stronger effect = lower value
Procedure, shortened: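 High-throughput combination screen: PI3K inhibitors crossed with targeted small molecules on complex spheroids of tumor cells, HUVEC and MSCs at 37 degrees C, 5% CO2. Top concentration was at or near clinical Cmax (otherwise 10 microM), with half-log decrements.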

[1] = second compound 0.0316 µM, first compound 0.0316 µM
[2] = second compound 0.0316 µM, first compound 0.1 µM
[3] = second compound 0.1 µM, first compound 0.0316 µM
[4] = second compound 0.1 µM, first compound 0.1 µM
[5] = second compound 0.316 µM, first compound 0.0316 µM
[6] = second compound 0.316 µM, first compound 0.1 µM
[7] = second compound 1 µM, first compound 0.0316 µM
[8] = second compound 1 µM, first compound 0.1 µM
[9] = second compound 3.16 µM, first compound 0.0316 µM
[10] = second compound 3.16 µM, first compound 0.1 µM
[11] = second compound 10 µM, first compound 0.0316 µM
[12] = second compound 10 µM, first compound 0.1 µM
[13] = second compound 0.0316 µM, first compound 0.316 µM
[14] = second compound 0.0316 µM, first compound 1 µM
[15] = second compound 0.0316 µM, first compound 3.16 µM
[16] = second compound 0.0316 µM, first compound 10 µM
[17] = second compound 0.1 µM, first compound 0.316 µM
[18] = second compound 0.1 µM, first compound 1 µM
[19] = second compound 0.1 µM, first compound 3.16 µM
[20] = second compound 0.1 µM, first compound 10 µM
[21] = second compound 0.316 µM, first compound 0.316 µM
[22] = second compound 0.316 µM, first compound 1 µM
[23] = second compound 0.316 µM, first compound 3.16 µM
[24] = second compound 0.316 µM, first compound 10 µM
[25] = second compound 1 µM, first compound 0.316 µM
[26] = second compound 1 µM, first compound 1 µM
[27] = second compound 1 µM, first compound 3.16 µM
[28] = second compound 1 µM, first compound 10 µM
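Also: agents incubated with spheroids for one week before read-out.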
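For viability, T/C in this document: 100% = DMSO vehicle-treated control wells.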

SMILES: CC(C)n1nc(-c2ccc3oc(N)nc3c2)c2c(N)ncnc21 + Cc1nc(NC(=O)N2CCCC2C(N)=O)sc1-c1ccnc(C(C)(C)C(F)(F)F)c1
- IC50 (second compound 0.0316 µM): 0.0495 µM
- IC50 (second compound 0.1 µM): 0.0428 µM
- IC50 (second compound 0.316 µM): 0.0331 µM
- IC50 (second compound 1 µM): 0.0111 µM
- IC50 (second compound 3.16 µM): < 0.000316 µM
- IC50 (second compound 10 µM): < 0.000316 µM
- viability, T/C (second compound 0.0316 µM, first compound 0.000316 µM): 85.8%
- viability, T/C (second compound 0.0316 µM, first compound 0.001 µM): 86.9%
- viability, T/C (second compound 0.0316 µM, first compound 0.00316 µM): 106%
- viability, T/C (second compound 0.0316 µM, first compound 0.01 µM): 87.6%
- viability, T/C [1]: 70.7%
- viability, T/C [2]: 17.8%
- viability, T/C (second compound 0.1 µM, first compound 0.000316 µM): 105%
- viability, T/C (second compound 0.1 µM, first compound 0.001 µM): 88.5%
- viability, T/C (second compound 0.1 µM, first compound 0.00316 µM): 97.2%
- viability, T/C (second compound 0.1 µM, first compound 0.01 µM): 82.8%
- viability, T/C [3]: 63.6%
- viability, T/C [4]: 14.7%
- viability, T/C (second compound 0.316 µM, first compound 0.000316 µM): 68.4%
- viability, T/C (second compound 0.316 µM, first compound 0.001 µM): 87.6%
- viability, T/C (second compound 0.316 µM, first compound 0.00316 µM): 87.4%
- viability, T/C (second compound 0.316 µM, first compound 0.01 µM): 75.1%
- viability, T/C [5]: 51.8%
- viability, T/C [6]: 12.3%
- viability, T/C (second compound 1 µM, first compound 0.000316 µM): 67.5%
- viability, T/C (second compound 1 µM, first compound 0.001 µM): 66.9%
- viability, T/C (second compound 1 µM, first compound 0.00316 µM): 55.9%
- viability, T/C (second compound 1 µM, first compound 0.01 µM): 51.4%
- viability, T/C [7]: 37.8%
- viability, T/C [8]: 8.4%
- viability, T/C (second compound 3.16 µM, first compound 0.000316 µM): 42.5%
- viability, T/C (second compound 3.16 µM, first compound 0.001 µM): 44.7%
- viability, T/C (second compound 3.16 µM, first compound 0.00316 µM): 35.8%
- viability, T/C (second compound 3.16 µM, first compound 0.01 µM): 34.1%
- viability, T/C [9]: 20.5%
- viability, T/C [10]: 5.68%
- viability, T/C (second compound 10 µM, first compound 0.000316 µM): 22.9%
- viability, T/C (second compound 10 µM, first compound 0.001 µM): 19.3%
- viability, T/C (second compound 10 µM, first compound 0.00316 µM): 20.3%
- viability, T/C (second compound 10 µM, first compound 0.01 µM): 16.2%
- viability, T/C [11]: 11.9%
- viability, T/C [12]: 3.12%

SMILES: CC1(C)CCC(CN2CCN(c3ccc(C(=O)NS(=O)(=O)c4ccc(NCC5CCOCC5)c([N+](=O)[O-])c4)c(Oc4cnc5[nH]ccc5c4)c3)CC2)=C(c2ccc(Cl)cc2)C1 + CC(Nc1ncnc2nc[nH]c12)c1cc2cccc(Cl)c2c(=O)n1-c1ccccc1
- IC50 (second compound 0.0316 µM): 4.97 µM
- IC50 (second compound 0.1 µM): 4.87 µM
- IC50 (second compound 0.316 µM): 5.11 µM
- IC50 (second compound 1 µM): 5.04 µM
- IC50 (second compound 3.16 µM): 5.09 µM
- IC50 (second compound 10 µM): 5.17 µM
- viability, T/C [1]: 118%
- viability, T/C [2]: 88.3%
- viability, T/C [13]: 114%
- viability, T/C [14]: 105%
- viability, T/C [15]: 81.1%
- viability, T/C [16]: 2.05%
- viability, T/C [3]: 92%
- viability, T/C [4]: 101%
- viability, T/C [17]: 111%
- viability, T/C [18]: 117%
- viability, T/C [19]: 78.8%
- viability, T/C [20]: 1.83%
- viability, T/C [5]: 104%
- viability, T/C [6]: 107%
- viability, T/C [21]: 105%
- viability, T/C [22]: 106%
- viability, T/C [23]: 84.2%
- viability, T/C [24]: 2.05%
- viability, T/C [7]: 95.6%
- viability, T/C [8]: 106%
- viability, T/C [25]: 103%
- viability, T/C [26]: 98.4%
- viability, T/C [27]: 82.5%
- viability, T/C [28]: 2.34%
- viability, T/C [9]: 99.9%
- viability, T/C [10]: 96.9%
- viability, T/C (second compound 3.16 µM, first compound 0.316 µM): 104%
- viability, T/C (second compound 3.16 µM, first compound 1 µM): 97.9%
- viability, T/C (second compound 3.16 µM, first compound 3.16 µM): 83.9%
- viability, T/C (second compound 3.16 µM, first compound 10 µM): 2.02%
- viability, T/C [11]: 97.2%
- viability, T/C [12]: 79.9%
- viability, T/C (second compound 10 µM, first compound 0.316 µM): 103%
- viability, T/C (second compound 10 µM, first compound 1 µM): 89.1%
- viability, T/C (second compound 10 µM, first compound 3.16 µM): 85.6%
- viability, T/C (second compound 10 µM, first compound 10 µM): 2.02%

SMILES: C#Cc1c(F)ccc2cc(O)cc(-c3ncc4c(N5CC6CCC(C5)N6)nc(OCC56CCCN5CC(F)C6)nc4c3F)c12 (stereo unspecified) + CC(Nc1ccc2c(c1)OCCn1cc(N3C(=O)OCC3C(F)F)nc1-2)C(N)=O
- IC50 (second compound 0.00316 µM): > 10 µM
- IC50 (second compound 0.01 µM): > 10 µM
- IC50 (second compound 0.0316 µM): > 10 µM
- IC50 (second compound 0.1 µM): > 10 µM
- IC50 (second compound 0.316 µM): 3.61 µM
- IC50 (second compound 1 µM): < 0.0316 µM
- viability, T/C (second compound 0.00316 µM, first compound 0.0316 µM): 94.4%
- viability, T/C (second compound 0.00316 µM, first compound 0.1 µM): 85.1%
- viability, T/C (second compound 0.00316 µM, first compound 0.316 µM): 109%
- viability, T/C (second compound 0.00316 µM, first compound 1 µM): 89.2%
- viability, T/C (second compound 0.00316 µM, first compound 3.16 µM): 107%
- viability, T/C (second compound 0.00316 µM, first compound 10 µM): 110%
- viability, T/C (second compound 0.01 µM, first compound 0.0316 µM): 106%
- viability, T/C (second compound 0.01 µM, first compound 0.1 µM): 93%
- viability, T/C (second compound 0.01 µM, first compound 0.316 µM): 96.6%
- viability, T/C (second compound 0.01 µM, first compound 1 µM): 98.2%
- viability, T/C (second compound 0.01 µM, first compound 3.16 µM): 110%
- viability, T/C (second compound 0.01 µM, first compound 10 µM): 116%
- viability, T/C [1]: 82.4%
- viability, T/C [2]: 87.8%
- viability, T/C [13]: 89.9%
- viability, T/C [14]: 92.4%
- viability, T/C [15]: 105%
- viability, T/C [16]: 92.9%
- viability, T/C [3]: 71.7%
- viability, T/C [4]: 69.8%
- viability, T/C [17]: 58.7%
- viability, T/C [18]: 82.8%
- viability, T/C [19]: 77.8%
- viability, T/C [20]: 73.6%
- viability, T/C [5]: 55.5%
- viability, T/C [6]: 55.3%
- viability, T/C [21]: 44.7%
- viability, T/C [22]: 54.6%
- viability, T/C [23]: 53.9%
- viability, T/C [24]: 29.1%
- viability, T/C [7]: 38.7%
- viability, T/C [8]: 31.5%
- viability, T/C [25]: 35.1%
- viability, T/C [26]: 32.8%
- viability, T/C [27]: 29.4%
- viability, T/C [28]: 17.6%
